We go through 1 molecule from patent publication US9957569B2, “Recurrent gene fusions in prostate cancer” (THE REGENTS OF THE UNIVERSITY OF MICHIGAN, priority 2005, dated 2018).

In data set [1] the test system is ERG. Description: In vitro androgen responsiveness: ERG expression by QPCR after R1881. It is filed as cell-based, human. Particulars: 1 nM R1881, 24 h; for increase in expression of ERG compared to untreated controls: QPCR ERG/GAPDH; for expression of ERG after R1881 treatment compared to untreated controls: QPCR. As to the method: Quantitative PCR (QPCR) was performed using SYBR Green dye on an Applied Biosystems 7300 Real Time PCR system essentially as described (Chinnaiyan et al., Cancer Res 65, 3328 (2005); Rubin et al., Cancer Res 64, 3814 (2004)). Briefly, 1-5 μg of total RNA was reverse transcribed into cDNA using SuperScript III (Invitrogen) in the presence of random primers or random primers and oligo dT primers. All reactions were performed with SYBR Green Master Mix (Applied Biosystems) and 25 ng of both the forward and reverse primer using the manufacturer's recommended thermocycling conditions. All reactions were subjected to melt curve analysis and products from selected experiments were resolved by electrophoreses on 1.5% agarose gels. For each experiment, threshold levels were set during the exponential phase of the QPCR reaction using Sequence Detection Software version 1.2.2 (Applied Biosystems). The amount of each target gene relative to the housekeeping gene glyceraldehyde-3-phosphate dehydrogenase (GAPDH) for each sample was determined using the comparative threshold cycle (Ct) method (Applied Biosystems User Bulletin #2), with the cDNA sample serving as the calibrator for each experiment described in the figure legend. All oligonucleotide primers were synthesized by Integrated DNA Technologies. GAPDH primers were as described (Vandesompele et al., Genome Biol 3, RESEARCH0034 (2002)) and all other primers are listed (Table 4).
RWPE, LNCaP, VCap DuCaP, PC3 and PC3 cells stably transfected with the human androgen receptor (PC3+AR) (3) were treated for 24 h with 1% ethanol control or 1 nM of the synthetic androgen R1881. Total RNA was isolated and subjected to reverse transcription and QPCR as described above with ERG exon 5-6_f and _r primers. The relative amount of ERG/GAPDH for each sample was calibrated to the RWPE control sample.

The test system of data set [2] is LNCaP prostate cancer cell line. Description: Androgen stimulation of LNCaP cells, qPCR of endogenous 5′ fusion partner genes. Particulars: 1 nM R1881, 24 h. It is filed as cell-based, human. The protocol: For androgen stimulation experiments, LNCaP cells were grown in charcoal-stripped serum containing media for 24 hours before treatment for 24 hours with 1% ethanol or 1 nM of methyltrienolone (R1881, NEN Life Science Products, Boston, Mass.) dissolved in ethanol.
Quantitative PCR (QPCR) was performed using Power SYBR Green Mastermix (Applied Biosystems, Foster City, Calif.) on an Applied Biosystems 7300 Real Time PCR system as described (Tomlins et al., Cancer Res 66, 3396-400 (2006); Tomlins et al., Recurrent fusion of TMPRSS2 and ETS transcription factor genes in prostate cancer. Science 310, 644-8 (2005)). HMBS and GAPDH5, and PSA6 primers were as described. Androgen stimulation reactions were performed in quadruplicate, all other reactions were performed in duplicate.
Background: Real-time PCR tracks product formation cycle by cycle.

For data set [3] the test system is unchanged. As to the kind of experiment: Androgen stimulation time course of LNCaP cells, Q-PCR of FLJ35294, CANT1 and DDX5 transcripts. It is filed as cell-based, human. As to the method: Q-PCR was carried out according to standard protocols.
Samples were normalized by the mRNA level of the housekeeping gene GAPDH. Androgen stimulation reactions were performed in triplicate, and all other reactions were performed in duplicate. RNA Ligase Mediated Rapid Amplification of cDNA Ends (RLM-RACE)

The subject of data set [4] is ERG. As to the kind of experiment: Androgen regulation of Erg expression in LNCap and VCaP cells. It is filed as cell-based, human. Particulars: VCaP (TMPRSS2-ERG+), varying amounts of R1881, 48 hrs. The protocol:
This Example describes the androgen regulation of Erg expression. LNCap (TMPRSS2-ERG-) and VCaP (TMPRSS2-ERG+) cell lines were used. The cells were contacted with varying amounts of R1881 for 48 hrs. Expression of Erg, PSA (+control) and beta-tubulin (−control) were assayed.

Data set [5] deals with VCaP and LNCaP prostate cancer cell lines. Description: QPCR of PSA and ETV1 in VCaP and LNCaP cells treated with R1881. It is filed as cell-based, human.
For the next data set, the target named is androgen receptor (AR) (Homo sapiens, UniProt P10275, T878A). Particulars: LNCaP.
Sequence of androgen receptor (AR) (P10275 whole entry T878A): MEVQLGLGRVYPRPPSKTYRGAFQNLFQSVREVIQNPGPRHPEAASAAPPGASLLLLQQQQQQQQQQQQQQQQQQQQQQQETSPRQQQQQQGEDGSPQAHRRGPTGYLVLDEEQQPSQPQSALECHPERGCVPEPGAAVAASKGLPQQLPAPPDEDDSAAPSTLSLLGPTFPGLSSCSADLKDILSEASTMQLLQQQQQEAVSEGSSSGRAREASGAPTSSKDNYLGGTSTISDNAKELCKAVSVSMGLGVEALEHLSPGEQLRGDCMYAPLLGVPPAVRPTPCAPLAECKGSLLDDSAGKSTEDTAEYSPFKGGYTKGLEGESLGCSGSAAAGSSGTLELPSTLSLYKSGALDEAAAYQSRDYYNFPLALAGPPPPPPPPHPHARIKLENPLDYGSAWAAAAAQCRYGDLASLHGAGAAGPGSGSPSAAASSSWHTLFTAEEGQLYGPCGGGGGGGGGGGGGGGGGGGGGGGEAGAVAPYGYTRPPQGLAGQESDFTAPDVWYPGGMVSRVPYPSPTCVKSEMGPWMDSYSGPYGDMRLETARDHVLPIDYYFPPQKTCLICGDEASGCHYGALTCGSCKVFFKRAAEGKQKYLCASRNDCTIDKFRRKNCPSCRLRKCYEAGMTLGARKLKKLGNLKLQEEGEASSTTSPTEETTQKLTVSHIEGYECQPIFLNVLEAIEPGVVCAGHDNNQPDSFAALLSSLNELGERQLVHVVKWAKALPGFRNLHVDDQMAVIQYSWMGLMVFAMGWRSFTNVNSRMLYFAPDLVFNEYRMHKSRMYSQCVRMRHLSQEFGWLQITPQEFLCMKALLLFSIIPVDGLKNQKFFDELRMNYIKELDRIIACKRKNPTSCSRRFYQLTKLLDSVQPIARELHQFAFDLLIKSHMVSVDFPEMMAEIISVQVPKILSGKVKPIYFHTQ

Procedure for androgen receptor (AR): LNCaP, an androgen sensitive prostate cancer cell line, was maintained in RPMI with 10% FBS. For androgen stimulation experiments, cells were placed for two days in phenol red-free RPMI, supplemented with 5% of charcoal-treated FCS before being treated with 1% ethanol or 10 nM R1881 for the following time points 0, 3, 12, 24, and 48 hours. Cells were treated for 16 hours with androgen and crosslinked for chromatin immunoprecipitation (ChIP) analysis.
The input whole-cell extract DNA and the ChIP-enriched DNA were amplified by ligation-mediated PCR, and subjected to qPCR assessment of target promoters. ChIP enrichment was evaluated as a percentage of input DNA.

For the molecule `C[C@]1(O)CC[C@H]2[C@@H]3CCC4=CC(=O)CCC4=C3C=C[C@@]21C` [R1881, methyltrienolone], the “increase in expression of ERG compared to untreated controls” value in the data set on ERG [1] (DuCaP cells) came out at 2.57 fold; in the data set on ERG [1] (VCaP cells) it was 5.02 fold. In addition, the “expression of ERG after R1881 treatment compared to untreated controls” value in the data set on ERG [1] (LnCaP cells) came out at 0.86 fold; in the data set on ERG [1] (PC3 cells expressing the androgen receptor) it was 0.73 fold; in the data set with ERG [1] (PC3 cells) it was 1.28 fold; with ERG [1] (RWPE cells) it was 1.37 fold. The “decrease in expression of C15ORF21” value in data set [2] (P=0.0012) amounted to 1.9 fold. Also, the “change in expression of HNRPA2B1 (not significantly changed)” value in data set [2] (P=0.29) was 1.17 fold. For the same molecule, the “increase in endogenous expression of HERV-K_22q11.23” value in data set [2] (P=2.4E-4) was found to be 7.8 fold. Further, the “increase in endogenous expression of SLC45A3” value in data set [2] (P=6.5E-4) stood at 21.6 fold. Further, in data set [2] (P=9.95E-7), the “increase in endogenous expression of TMPRSS2” value worked out at 14.8 fold. Besides, the “expression of DDX5 on R1881 stimulation” value in data set [3] (10 nM R1881, Q-PCR) is recorded as “not affected”. For the same molecule, in data set [3] (10 nM R1881, at 24 hours, Q-PCR, P=0.0014), the “induction of expression of endogenous CANT1” value is 3.8 fold. Also, the “induction of expression of endogenous FL35294” value in data set [3] (10 nM R1881, at 48 hours, Q-PCR, P=0.0006) is 11.6 fold. Moreover, the “ERG expression, androgen dependence” value with ERG [4] is on record as “androgen dependent”. In addition, the “ETV1 expression by QPCR” value in data set [5] (LNCaP cells, 1 nM R1881, 48 hours) is recorded as “induction”. Besides, in data set [5] (androgen-responsive VCaP cell line), the ETV1 expression result is listed as “does not induce”. In addition, the “PSA expression by QPCR (normalized to GAPDH)” value in data set [5] (both VCaP and LNCaP cells, 1 nM R1881, 48 hours) is reported as “induction”. Further, the “AR recruitment to the promoter region of DDX5 (ChIP)” value at androgen receptor (AR) (16 hours after R1881) was “not recruited”. Further, the “AR occupancy of the promoter region of CANT1 (ChIP enrichment)” value on androgen receptor (AR) (16 hours after R1881, P=0.0014) is listed as 40 fold. Besides, on androgen receptor (AR) (16 hours after R1881, P=0.005), the “AR occupancy of the promoter region of FL35294 (ChIP enrichment)” value is 9 fold.
